Test results: PMC4955735 (Anesthesiology, 2016)
Where two headings read alike, the source gives them in different places.

Assays:
[1] = tested on: THP-1, HepG2 and HEK293 cell lines; experiment: In vitro cell assays; assay type: cell-based; conditions: 0.16 mM to 2.5 mM
[2] = tested on: S.typhimurium TA 1537; experiment: Bacteria reverse mutation assay
[3] = tested on: S.typhimurium TA 98; experiment: Bacteria reverse mutation assay
[4] = tested on: S.typhimurium TA 1535
[5] = tested on: S.typhimurium TA 100
[6] = rodents; cited from earlier work
[7] = humans; cited from earlier work
[8] = tested on: rats; experiment: Escalating phenylephrine infusion during continuous ketamine infusion; assay type: in vivo, rat; conditions: phenylephrine 4 to 10 μg/kg/min during steady state shallow ketamine anesthesia; n=3

For CC(O)COC[C@H]1O[C@@H]2O[C@H]3[C@H](O)[C@@H](O)[C@@H](O[C@H]4[C@H](O)[C@@H](O)[C@@H](O[C@H]5[C@H](O)[C@@H](O)[C@@H](O[C@H]6[C@H](O)[C@@H](O)[C@@H](O[C@H]7[C@H](O)[C@@H](O)[C@@H](O[C@H]8[C@H](O)[C@@H](O)[C@@H](O[C@H]1[C@H](O)[C@H]2O)O[C@@H]8COCC(C)O)O[C@@H]7COCC(C)O)O[C@@H]6COCC(C)O)O[C@@H]5COCC(C)O)O[C@@H]4COCC(C)O)O[C@@H]3COCC(C)O (stereo partly drawn) [HP-β-CD, hydroxypropyl-β-cyclodextrin], the “toxicity in the same cell lines compared with calabadion 2” value [1] was “very comparable”.
In the case of Nc1ccc2cc3ccccc3cc2c1 [2-AA, 2-Aminoanthracene, reference compound], the “number of colonies, positive control” value ([2]; TA 1537, +S9, 10 μg 2-Aminoanthracene per plate) is reported as 2-AA 141, the “number of colonies, positive control” value ([3]; TA 98, +S9, 10 μg 2-Aminoanthracene per plate) is reported as 2-AA 1101 and the “number of colonies, positive control” value ([4]; TA 1535, +S9, 10 μg 2-Aminoanthracene per plate) is reported as 2-AA 91. For the same compound, the “number of colonies, positive control” value ([5]; TA 100, +S9, 10 μg 2-Aminoanthracene per plate) was 2-AA 1307.
For CCOC(=O)c1cncn1[C@H](C)c1ccccc1 [etomidate], the “plasma concentration at awakening” value [6] is listed as 0.44 µg/mL, the “plasma concentration at awakening” value [7] is listed as 0.28 µg/mL and the “plasma concentration at maintenance of sedation” value [7] is listed as 0.3 to 0.6 µg/mL.
With CNC[C@H](O)c1cccc(O)c1 [phenylephrine] the “effect on EEG power” value [8] was “without effects on EEG power” and the “effect on MAP” value [8] was “significant MAP increases”.
With COc1cccc2c1C(=O)c1c(O)c3c(c(O)c1C2=O)C[C@@](O)(C(C)=O)C[C@@H]3O[C@H]1C[C@H](N)[C@H](O)[C@H](C)O1 [D-myc, Daunomycin, reference compound] the “number of colonies, positive control” value ([3]; TA 98, −S9, 6 μg Daunomycin per plate) was “D-myc 505”.
For COc1ccc2nc3cc(Cl)ccc3c(NCCCNCCCl)c2c1 [191-A, ICR 191 Acridine, reference compound], the “number of colonies, positive control” value ([2]; TA 1537, −S9, 1 μg ICR 191 Acridine per plate) was 191-A 250.
In the case of CNC1(c2ccccc2Cl)CCCCC1=O (stereo not drawn) [ketamine], the “plasma concentration at awakening” value [6] is given as 5 µg/mL, the “plasma concentration at awakening” value [7] is given as 1 µg/mL and the “plasma concentration at maintenance of sedation” value [7] is given as 2 to 3 µg/mL.
With [N-]=[N+]=[N-].[Na+] [SA, Sodium Azide, reference compound] the “number of colonies, positive control” value ([4]; TA 1535, −S9, 1.5 μg Sodium Azide per plate) was “SA 446” and the “number of colonies, positive control” value ([5]; TA 100, −S9, 1.5 μg Sodium Azide per plate) was “SA 282”.
In the case of CC[C@H]1OC(=O)[C@H](C)[C@@H](O[C@H]2C[C@@](C)(OC)[C@@H](O)[C@H](C)O2)[C@H](C)[C@@H](O[C@@H]2O[C@H](C)C[C@H](N(C)C)[C@H]2O)[C@](C)(O)C[C@@H](C)C(=O)[C@H](C)[C@@H](O)[C@]1(C)O [erythromycin], the “toxicity in the same cell lines compared with calabadion 2” value [1] is reported as “very comparable”.
